# Values of other authors as cited in PMC7584369, “Di-bromo-Based Small-Molecule Inhibitors of the PD-1/PD-L1 Immune Checkpoint” (Journal of Medicinal Chemistry, 2020).
# System: PD-L1
# Settings: several independent biophysical and cell-based assays; cited from earlier work
structure (smiles),measurement,value
C[C@@H](O)[C@H](NC(=O)N[C@@H](CC(N)=O)c1nc([C@@H](N)CO)no1)C(=O)O [CA-170],direct binding to PD-L1,not a direct PD-L1-binder
